Source: patent US12180165B2, “Human TLR8-selective agonists” (University of Kansas, priority 2015, dated 2024)
Structures can show the parent of a compound that is named as a salt. Values belong to the compound of their own block, whether it stands above or below them.

What was measured:
[1] = test system: TLR-2/-3/-4/-5/-7/-9 and NOD-1/NOD-2; test: TLR-2/-3/-4/-5/-7/-9 and NOD-1/NOD-2 counter-screens (reporter gene assays); type: cell-based, human
Experimental: (§1) HEK293 cells stably co-transfected with the appropriate hTLR (or NOD) and secreted alkaline phosphatase (sAP) were maintained in HEK-BLUE™ Selection medium. Stable expression of secreted alkaline phosphatase (sAP) under control of NF-κB/AP-1 promoters is inducible by appropriate TLR/NOD agonists, and extracellular sAP in the supernatant is proportional to NF-κB induction. Reporter cells were incubated at a density of ˜10^5 cells/ml in a volume of 80 μl/well, in 384-well, flat-bottomed cell culture-treated microtiter plates in the presence of graded concentrations of stimuli. sAP was assayed spectrophotometrically using an alkaline phosphatase-specific chromogen (present in HEK-detection medium as supplied by InvivoGen) at 620 nm.

[2] = biological target: T1, human TLR8 (Homo sapiens, UniProt Q9NR97); test: Human TLR8-specific reporter gene assay (NF-κB induction, sAP readout in HEK293 cells); type: cell-based; conditions: EC50 in human TLR8-specific reporter gene assay
T1 construct: expressed in transfected cells; host or cells: HEK293
T1 sequence (Q9NR97 27-1041): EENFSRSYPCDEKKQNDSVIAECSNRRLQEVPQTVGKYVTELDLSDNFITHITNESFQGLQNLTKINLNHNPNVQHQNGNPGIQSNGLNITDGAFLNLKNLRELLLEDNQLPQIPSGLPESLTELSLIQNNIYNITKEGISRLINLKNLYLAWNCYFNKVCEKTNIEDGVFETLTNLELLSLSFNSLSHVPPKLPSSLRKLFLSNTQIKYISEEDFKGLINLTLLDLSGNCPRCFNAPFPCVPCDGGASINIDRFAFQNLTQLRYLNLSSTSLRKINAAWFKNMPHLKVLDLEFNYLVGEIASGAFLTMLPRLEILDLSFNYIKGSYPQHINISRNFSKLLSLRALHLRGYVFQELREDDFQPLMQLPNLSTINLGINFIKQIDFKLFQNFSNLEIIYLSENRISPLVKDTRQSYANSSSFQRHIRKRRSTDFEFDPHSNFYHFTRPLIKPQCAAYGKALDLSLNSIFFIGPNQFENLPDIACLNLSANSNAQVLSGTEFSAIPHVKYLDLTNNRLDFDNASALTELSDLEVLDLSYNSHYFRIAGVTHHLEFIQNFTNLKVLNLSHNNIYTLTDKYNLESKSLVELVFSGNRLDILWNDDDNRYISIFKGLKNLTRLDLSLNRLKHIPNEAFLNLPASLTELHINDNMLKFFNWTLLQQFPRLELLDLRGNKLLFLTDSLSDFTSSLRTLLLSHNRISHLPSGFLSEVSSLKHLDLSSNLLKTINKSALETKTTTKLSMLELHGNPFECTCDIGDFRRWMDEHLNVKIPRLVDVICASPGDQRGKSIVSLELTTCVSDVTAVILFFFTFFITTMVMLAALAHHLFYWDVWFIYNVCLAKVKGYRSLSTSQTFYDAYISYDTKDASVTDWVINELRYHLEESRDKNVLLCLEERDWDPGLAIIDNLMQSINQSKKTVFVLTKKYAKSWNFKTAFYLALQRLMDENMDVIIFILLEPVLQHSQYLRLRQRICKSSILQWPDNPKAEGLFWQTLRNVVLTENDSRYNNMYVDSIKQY
Experimental: as §1

[3] = test system: human PBMCs; test: Cytokine/chemokine induction in human peripheral blood mononuclear cells (multiplexed bead array); type: cell-based; conditions: human PBMCs as well as whole human blood, FIG. 3
Excerpt: Immunoassays for cytokines.

[4] = test system: CD14+ monocytes; test: Eight-color flow cytometry of activation markers in human whole blood; type: cell-based; conditions: FIG. 5
Experimental: Eight-color Flow-cytometric immunostimulation experiments: Cell surface marker upregulation was determined by flow cytometry using protocols as described previously (Hood, J. D. et al. Hum. Vaccin. 2010, 6, 332-335), and modified for rapid-throughput. […] Serial dilutions of selected compounds were performed using a Bio-Tek Precision 2000 XS liquid handler in sterile 96-well polypropylene plates, to which were added 100 mL aliquots of anticoagulated whole human blood. The plates were incubated at 37° C. for 16 h. Negative (endotoxin free water) controls were included in each experiment. The following fluorochrome-conjugated antibodies were used: CD3-PE, CD19-FITC, CD56-APC (eBioscience, San Diego, CA), CD14-V500, CD28 PE-Cy7, CD40 V450, CD80 APC-H7, CD86 PerCP-Cy5.5 (Becton-Dickinson Biosciences, San Jose, CA). Following incubation, 2.5 μg of each antibody was added to wells with a liquid handler, and incubated at 4° C. in the dark for 60 min. […] CD28, CD40, CD80, and CD86 activation in the major leukocyte populations, viz., natural killer lymphocytes (NK cells: CD3-CD56+), cytokine-induced killer phenotype (CIK cells: CD3+CD56+), B lymphocytes (CD19+CD3-), T lymphocytes (CD3+CD56-), monocytes (CD14+), polymorphonuclear cells (CD14-) were quantified using FlowJo v 7.0 software (Treestar, Ashland, OR).

[5] = biological target: T1, human TLR8; conditions: reference compounds, literature values (Kokatla et al.); read-out: TLR8 EC50 (previously reported); cited from earlier work

TLR8 Agonistic Activity (nM) [2]: Inactive
Compound: CCCCCc1cc2c(Cc3ccccc3)cccc2nc1N [Compound 17d, 5-Benzyl-3-pentylquinolin-2-amine]

TLR8 Agonistic Activity (nM) [2]: Inactive
Compound: CCCCCc1cc2c(Cc3cccc(C(N)=O)c3)cccc2nc1N [Compound 18d, 3-((2-Amino-3-pentylquinolin-5-yl)methyl)benzamide]

TLR8 Agonistic Activity (nM) [2]: Inactive
Compound: CCCCCc1cc2c(-c3cccc(CN)c3)cccc2nc1N [Compound 20a, 5-(3-(Aminomethyl)phenyl)-3-pentylquinolin-2-amine]

TLR8 Agonistic Activity (nM) [2]: Inactive
Compound: CCCCCc1cc2cccc(CCCCN)c2nc1N [Compound 37, 8-(4-Aminobutyl)-3-pentylquinolin-2-amine]

The next lines start with the compound.

Compound: CCCCCc1c(N)nc2ccccc2c1Cc1cccc(CN)c1 [Compound 9a, 4-(3-(Aminomethyl)benzyl)-3-pentylquinolin-2-amine dihydrochloride]
specificity for TLR8 [1]: retained specificity for TLR8

Compound: CCCCCc1c(N)nc2ccccc2c1Cc1ccc(CN)cc1 [Compound 9b, 4-(4-(Aminomethyl)benzyl)-3-pentylquinolin-2-amine dihydrochloride]
specificity for TLR8 [1]: retained specificity for TLR8

Compound: CCCCCc1cc2c(CCCCCN)cccc2nc1N [Compound 34b, 5-(5-Aminopentyl)-3-pentylquinolin-2-amine]
induction of proinflammatory cytokines including TNF-α, IL-12 and IFN-γ [3]: induction of a specific set of proinflammatory cytokines was observed | CD40 upregulation [4]: upregulate CD40 | CD80 expression [4]: strongly induces CD80 expression

Compound: C2-butyl furo[2,3-c]quinoline
EC50 [5]: 1.6 µM
